Results reported in US20230080054A1 (ILDONG PHARMACEUTICAL CO., LTD., priority 2021, published 2023).

biological target: T1, human ANO6 (Homo sapiens, UniProt Q4KMQ2); assay: YFP quenching assay (ANO6 ion channel activity); assay type: cell-based; conditions: test compound 1 μM, 10 μM ionomycin, read-out: Inhibition Level 1 μM
T1 construct: expressed in transfected cells
T1 sequence (Q4KMQ2 1-931 isoform Q4KMQ2-2): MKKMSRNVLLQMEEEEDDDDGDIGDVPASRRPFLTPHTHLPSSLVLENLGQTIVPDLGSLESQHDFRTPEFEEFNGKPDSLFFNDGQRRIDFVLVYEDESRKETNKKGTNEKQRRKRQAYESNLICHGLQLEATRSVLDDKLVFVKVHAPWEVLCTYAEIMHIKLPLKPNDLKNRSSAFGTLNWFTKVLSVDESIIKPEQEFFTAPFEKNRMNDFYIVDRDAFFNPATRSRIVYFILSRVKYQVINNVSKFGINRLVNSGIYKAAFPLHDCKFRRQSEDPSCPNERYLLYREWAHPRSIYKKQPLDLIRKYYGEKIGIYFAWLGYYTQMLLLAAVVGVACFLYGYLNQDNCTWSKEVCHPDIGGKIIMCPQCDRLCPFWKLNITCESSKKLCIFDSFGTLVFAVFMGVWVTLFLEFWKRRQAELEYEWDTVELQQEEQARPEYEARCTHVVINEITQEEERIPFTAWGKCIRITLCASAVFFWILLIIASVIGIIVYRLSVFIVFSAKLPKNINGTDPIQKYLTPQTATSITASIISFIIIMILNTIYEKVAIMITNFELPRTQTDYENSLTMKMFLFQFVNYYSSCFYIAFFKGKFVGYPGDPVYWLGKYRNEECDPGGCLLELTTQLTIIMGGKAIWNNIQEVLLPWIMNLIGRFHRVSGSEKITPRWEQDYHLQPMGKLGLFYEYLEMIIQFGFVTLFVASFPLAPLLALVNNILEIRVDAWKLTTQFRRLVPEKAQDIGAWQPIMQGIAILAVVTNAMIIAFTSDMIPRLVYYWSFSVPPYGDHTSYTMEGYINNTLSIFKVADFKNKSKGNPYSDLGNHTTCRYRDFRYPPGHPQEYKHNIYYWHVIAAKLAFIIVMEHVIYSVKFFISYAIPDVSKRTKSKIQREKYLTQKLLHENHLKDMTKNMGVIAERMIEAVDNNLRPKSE
Source text: Example 3: YFP Quenching Assay
1. Materials and Instruments
Ionomycin (Alomonelab cat. #I-700), FLUOstar Omega microplate reader (BMG Labtech, Ortenberg, Germany), and MARS Data Analysis Software (BMG Labtech)
Fisher rat thyroid (FRT) cells stably expressing human ANO6 (GenBank accession no. NP_001191732.1, provided by J. H. Nam, Dongguk University College of Medicine, Korea) and halide sensor mutant YFP-H148Q/I152L/F46L) were constructed and grown in Dulbecco's modified Eagle's medium Nutrient Mixture F-12 (DMEM/F-12) supplemented 10% FBS, 100 units/mL penicillin, 500 μg/mL hygromycin B and 100 μg/mL neomycin.
Fisher rat thyroid (FRT) cells stably expressing human ANO6 and halide sensor mutant YFP (H148Q/I152L/F46L) were seeded in black walled 96 well plates and incubated in a 37° C., 5% CO2 incubator to reach about 100% cell confluency. Then, each well of the 96 well plates were washed for several times with phosphate buffered saline (PBS), and 50 μL of PBS was added to each well. Test compounds (100× in DMSO) were added to each well to be 1% v/v DMSO. After incubation for 10 minutes in 40° C., the 96 well plates were transferred to a plate reader, and YFP fluorescence changed by SCN-introduced into cells through activated ANO6 were measured by the following steps.
(1) YFP fluorescence signals were recorded in every 0.4 seconds.
(2) Basal YFP fluorescence signals were recorded for 1 second.
(3) 140 mM SCN-(50 μL) containing 10 μM ionomycin was injected to each well, and YFP fluorescence signals were recorded.
The inhibitory activity (%) of each of the test compounds was obtained by the following steps.
(1) Background signals were subtracted from recording values, and the resulting values were converted to relative percentages. The values at 0 second were set to be 100%.
(2) Differences between the values at 3.6 seconds and those of at 7.6 seconds were calculated.
(3) In each row of 96 well plate, the inhibitory activity of each of the test compounds was calculated as percentages. The inhibitory activity of a negative control group to which neither compounds nor ionomycin were treated was set to be 100%, and the inhibitory activity of a positive control group to which ionomycin was treated and compounds were not treated was set to be 0%.
(4) The assay was performed in duplicate or triplicate, and the results were averaged.

Inhibition at 1 µM, < 30%:
Cc1ccc(CNC(=O)c2cccc(Nc3ccc(C4CCCO4)nn3)c2)o1 (centres unmarked) [Compound 86, N-[(5-methylfuran-2-yl)methyl]-3-{[6-(oxolan-2-yl)pyridazin-3-yl]amino}benzamide]
Cc1ccc(CNC(=O)c2cccc(Nc3ccc(C4CCOC4)nn3)c2)o1 (centres unmarked) [Compound 87, N-[(5-methylfuran-2-yl)methyl]-3-{[6-(oxolan-3-yl)pyridazin-3-yl]amino}benzamide]
Cc1ccc(CNC(=O)c2cccc(Nc3cccc(-c4ccccc4)c3)c2)o1 [Compound 88, 3-({[1,1′-biphenyl]-3-yl}amino)-N-[(5-methylfuran-2-yl)methyl]benzamide]
Cc1ccc(CNC(=O)c2cccc(Nc3nccc(-c4ccccc4)n3)c2)o1 [Compound 89, N-[(5-methylfuran-2-yl)methyl]-3-[(4-phenylpyrimidin-2-yl)amino]benzamide]
O=C(NCCN1CCCCC1)c1cccc(Nc2ncc(-c3ccccc3)cn2)c1 [Compound 93, 3-[(5-phenylpyrimidin-2-yl)amino]-N-[2-(piperidin-1-yl)ethyl]benzamide]
O=C(NCCN1CCCC1)c1cccc(Nc2ncc(-c3ccccc3)cn2)c1 [Compound 94, 3-[(5-phenylpyrimidin-2-yl)amino]-N-[2-(pyrrolidin-1-yl)ethyl]benzamide]
CN(C)CCNC(=O)c1cccc(Nc2ncc(-c3ccccc3)cn2)c1 [Compound 95, N-[2-(dimethylamino)ethyl]-3-[(5-phenylpyrimidin-2-yl)amino]benzamide]
CCN(CC)CCNC(=O)c1cccc(Nc2ncc(-c3ccccc3)cn2)c1 [Compound 96, N-[2-(diethylamino)ethyl]-3-[(5-phenylpyrimidin-2-yl)amino]benzamide]
CN1CCN(CCNC(=O)c2cccc(Nc3ncc(-c4ccccc4)cn3)c2)CC1 [Compound 97, N-[2-(4-methylpiperazin-1-yl)ethyl]-3-[(5-phenylpyrimidin-2-yl)amino]benzamide]
Cc1ccc(CNC(=O)c2cccc(Nc3ncc(-c4ccc(C(F)(F)F)cc4)cn3)c2)o1 [Compound 100, N-[(5-methylfuran-2-yl)methyl]-3-({5-[4-(trifluoromethyl)phenyl]pyrimidin-2-yl}amino)benzamide]
CCOC(=O)c1cccc(-c2cnc(Nc3cccc(C(=O)NCc4ccc(C)o4)c3)nc2)c1 [Compound 101, ethyl 3-{2-[(3-{[(5-methylfuran-2-yl)methyl]carbamoyl}phenyl)amino]pyrimidin-5-yl}benzoate]
CCOC(=O)c1ccc(-c2cnc(Nc3cccc(C(=O)NCc4ccc(C)o4)c3)nc2)cc1 [Compound 102, ethyl 4-{2-[(3-{[(5-methylfuran-2-yl)methyl]carbamoyl}phenyl)amino]pyrimidin-5-yl}benzoate]
Cc1ccc(CNC(=O)c2cccc(Nc3ncc(-c4ccc5c(c4)OCO5)cn3)c2)o1 [Compound 103, 3-{[5-(2H-1,3-benzodioxol-5-yl)pyrimidin-2-yl]amino}-N-[(5-methylfuran-2-yl)methyl]benzamide]
Cc1ccc(CNC(=O)c2cccc(Nc3ncc(-c4cnc5ccccc5c4)cn3)c2)o1 [Compound 104, N-[(5-methylfuran-2-yl)methyl]-3-{[5-(quinolin-3-yl)pyrimidin-2-yl]amino}benzamide]
Cc1ccc(CNC(=O)c2cccc(Nc3ccc(C#N)nn3)c2)o1 [Compound 107, 3-[(6-cyanopyridazin-3-yl)amino]-N-[(5-methylfuran-2-yl)methyl]benzamide]
Cc1ccc(CNC(=O)c2cccc(Nc3ncc(-c4cccc(C(=O)O)c4)cn3)c2)o1 [Compound 108, 3-{2-[(3-{[(5-methylfuran-2-yl)methyl]carbamoyl}phenyl)amino]pyrimidin-5-yl}benzoic acid]
Cc1ccc(CNC(=O)c2cccc(Nc3ncc(-c4ccc(C(=O)O)cc4)cn3)c2)o1 [Compound 109, 4-{2-[(3-{[(5-methylfuran-2-yl)methyl]carbamoyl}phenyl)amino]pyrimidin-5-yl}benzoic acid]
Cc1ccc(CNC(=O)c2cccc(Nc3ncc(-c4cc5ccccc5o4)cn3)c2)o1 [Compound 111, 3-{[5-(1-benzofuran-2-yl)pyrimidin-2-yl]amino}-N-[(5-methylfuran-2-yl)methyl]benzamide]
O=C(NCCc1ccccc1)c1cnc(Nc2ccc(-c3ccccc3)nn2)s1 [Compound 113, N-(2-phenylethyl)-2-[(6-phenylpyridazin-3-yl)amino]-1,3-thiazole-5-carboxamide]
Cc1ccc(-c2ccc(Nc3cccc(C(=O)NCc4ccc(C)o4)c3)nn2)cc1 [Compound A7]
Cc1ccc(CNC(=O)c2cccc(Nc3ncc(-c4cccc(F)c4)cn3)c2)o1 [Compound A20]

Inhibition at 1 µM, 30 to 60%:
Cc1ccc(CNC(=O)c2cccc(Nc3ccc(C(C)C)nn3)c2)o1 [Compound 85, N-[(5-methylfuran-2-yl)methyl]-3-{[6-(propan-2-yl)pyridazin-3-yl]amino}benzamide]
Cc1ccc(CNC(=O)c2cccc(Nc3ncc(-c4cccc(C(F)(F)F)c4)cn3)c2)o1 [Compound 99, N-[(5-methylfuran-2-yl)methyl]-3-({5-[3-(trifluoromethyl)phenyl]pyrimidin-2-yl}amino)benzamide]
O=C(NCCc1ccc2c(c1)OCO2)c1cccc(Nc2ncc(-c3ccccc3)cn2)c1 [Compound 106, N-[2-(2H-1,3-benzodioxol-5-yl)ethyl]-3-[(5-phenylpyrimidin-2-yl)amino]benzamide]
CN(CCNC(=O)c1cccc(Nc2ccc(-c3ccccc3)nn2)c1)Cc1ccccc1 [Compound 124]
O=C(NCc1ccc2c(c1)OCO2)c1cccc(Nc2ccc(-c3ccc(F)cc3)nn2)c1 [Compound A17]
Cc1cccc(-c2cnc(Nc3cccc(C(=O)NCc4ccc(C)o4)c3)nc2)c1 [Compound A18]
Cc1ccc(CNC(=O)c2cccc(Nc3ccc(-c4cccc(F)c4)nn3)c2)cc1 [Compound A25]

same assay, conditions: test compound 30 μM, 10 μM ionomycin, read-out: Inhibition Level 30 μM

Inhibition at 30 µM, 30 to 60%:
COc1ccc(CNC(=O)c2cccc(Nc3ccc(-c4ccc(F)cc4)nn3)c2)c(OC)c1 [Compound A9]
Cc1cccc(-c2cnc(Nc3cccc(C(=O)NCc4ccc(C)o4)c3)nc2)c1 [Compound A18]
Cc1ccc(CNC(=O)c2cccc(Nc3ncc(-c4ccc(F)cc4)cn3)c2)o1 [Compound A19]
Cc1ccc(CNC(=O)c2cccc(Nc3ncc(-c4cccc(F)c4)cn3)c2)o1 [Compound A20]
Cc1ccc(-c2ccc(Nc3cccc(C(=O)NCc4ccc(F)cc4)c3)nn2)cc1 [Compound A23]
Cc1ccc(-c2ccc(Nc3cccc(C(=O)NCc4ccc(Cl)cc4)c3)nn2)cc1 [Compound A28]

Inhibition at 30 µM, < 30%:
Cc1ccc(CNC(=O)c2cccc(Nc3ccnc(-c4cccc(F)c4)n3)c2)o1 [Compound A21]

Inhibition at 30 µM, ≥ 60%:
Cc1ccc(-c2ccc(Nc3cccc(C(=O)NCc4ccc(C)o4)c3)nn2)cc1 [Compound A7]
O=C(NCc1ccc2c(c1)OCO2)c1cccc(Nc2ccc(-c3ccc(F)cc3)nn2)c1 [Compound A17]
Cc1ccc(CNC(=O)c2cccc(Nc3ccc(-c4cccc(F)c4)nn3)c2)cc1 [Compound A25]
